Measurements: ChEMBL document CHEMBL1201862, “PubChem BioAssay data set” (2004)
The source made the active and inactive calls.

How the values were obtained:
[1] = biological target: Cytochrome P450 2C19 (Homo sapiens, UniProt P33261); assay: Cytochrome panel assay with activity outcomes. Panel member name: p450-cyp2c19 Compounds with AC50 equal or less than 10 uM are considered active; format: functional
[2] = Trypanosoma cruzi growth suppression in host cells – NIH3T3 host cells, beta-gal luminescence, confirmation (AID 2044); format: functional, cell-based;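 also: intracellular parasites grown in NIH/3T3 mouse fibroblasts as host cells; luminescent beta-galactosidase reporter signal from transgenic T. cruzi replicating inside host cells; inhibitors lower the luminescence signal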
[3] = NIH3T3 cell viability loss – ATP luminescence, mouse fibroblasts, counter-screen, dose response (AID 2010); format: functional, cell-based;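 also: cells exposed to compound for about 90 hours before reading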
[4] = system: Streptococcus sp. 'group A'; assay: Streptococcus pyogenes SK(-)GAS viability under kanamycin – luminescence, BacTiterGlo, confirmation, counter-screen for streptokinase expression inhibitor project, dose response (AID 1900); format: functional, organism-based
[5] = system: Streptococcus; assay: GAS UMAA2166 growth inhibition – luminescence, BacTiterGlo, counter-screen for streptokinase expression inhibitor project, dose response (AID 1915); format: functional, organism-based;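 also: potency for reduction of bacterial viability or growth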
[6] = biological target: T1, Streptokinase A (Streptococcus pyogenes serotype M1, UniProt P10520); assay: viability-normalized secreted streptokinase activity reduction – plasminogen activation absorbance, OD405, dose response (AID 1914); format: functional, Streptococcus pyogenes M1 GAS;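 also: secreted streptokinase activity via plasminogen activation per viability signal from cell pellet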
T1 sequence (P10520 whole entry): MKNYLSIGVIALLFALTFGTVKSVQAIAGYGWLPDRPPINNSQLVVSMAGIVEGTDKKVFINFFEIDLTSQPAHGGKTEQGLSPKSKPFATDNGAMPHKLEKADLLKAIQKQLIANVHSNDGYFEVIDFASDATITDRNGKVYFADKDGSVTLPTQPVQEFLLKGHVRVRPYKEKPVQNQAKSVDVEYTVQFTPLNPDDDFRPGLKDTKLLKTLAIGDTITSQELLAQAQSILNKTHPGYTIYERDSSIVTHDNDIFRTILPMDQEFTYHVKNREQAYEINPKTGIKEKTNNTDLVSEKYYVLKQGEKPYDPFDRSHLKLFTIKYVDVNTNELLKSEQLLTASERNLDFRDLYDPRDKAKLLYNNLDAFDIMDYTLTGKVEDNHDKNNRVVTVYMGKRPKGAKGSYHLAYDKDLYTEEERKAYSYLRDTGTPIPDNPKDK

[7] = luciferase reporter signal suppression in cells – H4 neuroglioma cells, luminescence, dose response (AID 1990); format: functional, cell-based
[8] = Luminescence Cell-Based Dose Response HTS to Identify Inhibitors of 5'UTR Stem-Loop Driven Prion Protein mRNA Translation in H4 Neuroglioblastoma Cells. [Related pubchem assays: 1827 (Project Summary), 1813 (Primary HTS)]; format: functional
[9] = alpha-synuclein stem-loop luciferase translation blockers – H4 neuroglioma cells, luminescence, confirmation (AID 1988); format: functional, cell-based
[10] = biological target: T2, Corticotropin-releasing factor receptor 2/Corticotropin-releasing factor-binding protein (Homo sapiens, UniProt P24387+Q13324); assay: activators of CRF receptor 2 with binding protein – uHTS hits, confirmation (AID 602473); format: functional; conditions: read-out: EC50_Mean
T2 sequence (Q13324 whole entry): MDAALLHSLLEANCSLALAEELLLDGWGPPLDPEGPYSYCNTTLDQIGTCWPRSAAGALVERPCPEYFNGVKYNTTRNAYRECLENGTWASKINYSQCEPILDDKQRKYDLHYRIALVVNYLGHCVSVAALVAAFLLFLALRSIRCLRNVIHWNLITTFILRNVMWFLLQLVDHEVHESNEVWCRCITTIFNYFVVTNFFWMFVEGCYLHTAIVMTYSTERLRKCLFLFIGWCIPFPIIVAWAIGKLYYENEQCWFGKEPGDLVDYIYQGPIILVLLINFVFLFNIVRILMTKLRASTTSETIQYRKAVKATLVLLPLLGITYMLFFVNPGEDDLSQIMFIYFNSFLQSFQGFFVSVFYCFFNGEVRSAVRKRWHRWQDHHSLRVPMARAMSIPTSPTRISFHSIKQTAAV
T2 sequence (P24387 whole entry): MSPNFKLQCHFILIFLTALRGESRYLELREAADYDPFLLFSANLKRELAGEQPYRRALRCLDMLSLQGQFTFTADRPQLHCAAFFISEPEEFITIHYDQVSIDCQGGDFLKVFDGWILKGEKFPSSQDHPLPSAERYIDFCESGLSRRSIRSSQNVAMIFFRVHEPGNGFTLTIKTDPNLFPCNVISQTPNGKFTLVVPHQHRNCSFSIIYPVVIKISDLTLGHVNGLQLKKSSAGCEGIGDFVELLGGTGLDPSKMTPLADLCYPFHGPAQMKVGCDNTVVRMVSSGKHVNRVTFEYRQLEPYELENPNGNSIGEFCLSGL

Cytochrome P450 2C19, sequence (P33261 whole entry): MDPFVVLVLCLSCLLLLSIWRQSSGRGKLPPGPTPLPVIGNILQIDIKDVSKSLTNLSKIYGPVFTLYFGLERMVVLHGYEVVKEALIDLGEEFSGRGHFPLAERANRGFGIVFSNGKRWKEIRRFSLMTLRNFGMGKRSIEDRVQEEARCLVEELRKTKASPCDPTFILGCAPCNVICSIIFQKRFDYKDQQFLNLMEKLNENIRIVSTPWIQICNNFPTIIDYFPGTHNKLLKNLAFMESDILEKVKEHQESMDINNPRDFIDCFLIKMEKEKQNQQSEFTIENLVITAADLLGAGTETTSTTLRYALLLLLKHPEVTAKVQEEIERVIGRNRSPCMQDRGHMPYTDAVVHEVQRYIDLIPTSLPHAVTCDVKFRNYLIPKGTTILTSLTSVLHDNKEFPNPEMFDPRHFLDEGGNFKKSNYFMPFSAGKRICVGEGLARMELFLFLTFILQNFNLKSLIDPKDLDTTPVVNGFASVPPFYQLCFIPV

| SMILES | EC50 [2] | EC50 [3] | EC50 [4] | EC50 [5] | also measured |
| --- | --- | --- | --- | --- | --- |
| CN(C)c1ncc2nc(-c3ccccc3)c(=O)n(CCC#N)c2n1 |  |  |  |  | AC50 ([1]; read-out: AC50): 39.8 µM (inconclusive) |
| O=C1S/C(=C\c2ccccc2)C(=O)N1CC(O)Cn1c2ccccc2c2ccccc21 (stereo not given) | 2.64 µM (active) | 11.5 µM (active) |  |  |  |
| Cc1cc(OCCOCCN2CCCC2)ccc1C(C)C | 0.816 µM (active) | 4.6 µM (active) |  |  |  |
| COC(=O)c1ccc(OC)c(CN2CCCN(Cc3ccc(F)cc3)S2(=O)=O)c1 | 1.75 µM (active) | > 30 µM (not active) |  |  |  |
| NNC(=O)CSc1nc(-c2ccccc2)nc2c1CCCC2 |  |  | > 150 µM (not active) | > 150 µM (not active) | EC50 [6]: > 150 µM (not active) |
| Cc1cccc(N=Nc2c(C)nn(-c3ccccc3)c2N)c1C |  |  | 11.7 µM (active) | 15.8 µM (active) | EC50 [6]: 22 µM (active) |
| O=C(Nc1nnc(SCc2ccc(F)cc2)s1)c1ccc2c(c1)C(=O)N(c1ccccc1Cl)C2=O |  |  | 24.3 µM (active) | 101 µM (active) | EC50 [6]: > 150 µM (not active) |
| COc1cccc(N(C(=O)Cn2nnc(-c3cccs3)n2)C(C(=O)NC(C)C)c2ccc(C)o2)c1 (stereo not given) |  |  |  |  | EC50 [7]: 16.4 µM (active); EC50 [8]: > 120 µM (not active); EC50 [9]: 18.8 µM (active) |
| CN1CCN(C(=O)C(=O)c2cn(CC(=O)N3CCCC3)c3ccccc23)CC1 |  |  | > 150 µM (not active) | > 150 µM (not active) | EC50 [6]: > 150 µM (not active) |
| COc1ccc(NC(=O)c2ccc([N+](=O)[O-])s2)c([N+](=O)[O-])c1 | 1.86 µM (active) | > 30 µM (not active) |  |  |  |
| Cn1nc([N+](=O)[O-])nc1Oc1ccccc1F | 0.551 µM (active) | > 60 µM (not active) |  |  |  |
| Cc1ccc(S(=O)(=O)N2CCCCC2)cc1NC(=O)Nc1ccc(Cl)cc1Cl | 1.06 µM (active) | > 60 µM (not active) |  |  |  |
| Cc1cc(C(=O)NCC23CC4CC(CC(C4)C2)C3)c(C)o1 | 2.84 µM (active) | > 60 µM (not active) |  |  |  |
| Cc1ccc(Nc2nc3nonc3[nH]c2=O)cc1Cl |  |  |  |  | EC50 [6]: 31.1 µM (active) |
| Cc1ccc(Nc2nc3nonc3nc2O)cc1Cl |  |  | 3.04 µM (active) | 20.6 µM (active) |  |
| Cc1c(C(=O)N2CCOCC2)c(S(=O)(=O)Nc2cccc(Br)c2)c(C)n1C |  |  |  |  | EC50 [7]: > 120 µM (not active); EC50 [8]: 32.2 µM (active); EC50 [9]: 15 µM (active) |
| Cc1ccc(NC(=O)CN(C)Cc2nc(O)c3cc(Br)cc(Br)c3n2)cc1 |  |  | 5.34 µM (active) | 12.2 µM (active) | EC50 [6]: > 150 µM (not active) |
| Cn1c(N)c(C(=O)COC(=O)CCc2c[nH]c3ccccc23)c(=O)n(C)c1=O |  |  | 24.6 µM (active) | 79.6 µM (active) | EC50 [6]: > 150 µM (not active) |
| CCc1nnc(NC(=O)c2sc3nc4cc(C)ccc4cc3c2N)s1 |  |  | 6.73 µM (active) | 3.95 µM (active) |  |
| CCOC(=O)C1CCCN(Cc2ccc(OCc3ccccc3)cc2)C1 (stereo not given) | 0.108 µM (active) | > 60 µM (not active) |  |  |  |
| COc1ccc(-n2ncc3c2CC(C)(C)CC3NC(=O)c2ocnc2C)cc1 (stereo not given) |  |  |  |  | EC50 [7]: > 120 µM (not active); EC50 [9]: > 120 µM (not active) |
| COc1cc2ccccc2cc1C(=O)Nc1ccc(NC(=O)c2cccs2)cc1 |  |  | 11.5 µM (active) | 29.2 µM (active) | EC50 [6]: > 150 µM (not active) |
| CNc1nc2nc(O)c3c(c2s1)OC(N)=C(C#N)C3c1cccc(F)c1 (stereo not given) |  |  |  |  | EC50 [10]: > 53 µM (inactive) |
| CN1CCN(C(CNC(=O)c2ccc(Br)o2)c2ccc(F)cc2)CC1 (stereo not given) | 0.865 µM (active) | > 60 µM (not active) |  |  |  |

| SMILES | EC50 [2] | EC50 [3] | EC50 [4] | EC50 [5] | also measured |
| --- | --- | --- | --- | --- | --- |
| Cc1ccccc1OCCCc1c(C)n[nH]c1C |  |  | 19.9 µM (active) | > 150 µM (not active) | EC50 [6]: > 150 µM (not active) |
| Cn1c(=O)n(C)c2cc(NS(=O)(=O)c3ccccc3[N+](=O)[O-])ccc21 |  |  | > 150 µM (not active) | > 150 µM (not active) | EC50 [6]: > 150 µM (not active) |
| O=C(CSc1nnc(-c2c[nH]c3ccccc23)o1)N(Cc1ccccc1)c1ccc(F)cc1 | 1.58 µM (active) | > 60 µM (not active) |  |  |  |
| N#C/C(=C/c1ccc(N2CCCCCC2)o1)c1cccc(F)c1 | 2.78 µM (active) | > 60 µM (not active) |  |  |  |
| CCOC(=O)C1=NN(C(=O)c2ccc(OC)cc2)C(O)(c2ccc(Cl)cc2)C1 (stereo not given) |  |  | 7.85 µM (active) | 15.7 µM (active) | EC50 [6]: > 150 µM (not active) |
| O=C(Nc1ccncc1)c1cccc(S(=O)(=O)N2CCN(c3ccc(F)cc3)CC2)c1 | 1.14 µM (active) | > 30 µM (not active) |  |  |  |
| CCOC(=O)C1CCCN(Cc2ccc(O)c(OC)c2)C1 (stereo not given) | 0.183 µM (active) | > 60 µM (not active) |  |  |  |
| O=C(COC(=O)CSc1cc(Cl)ccc1Cl)NCc1ccc2c(c1)OCO2 |  |  |  |  | EC50 [10]: > 53 µM (inactive) |
| CSc1nnnc2ccccc12 |  |  |  |  | AC50 [1]: inconclusive |
| Cc1ccc(C)c(NC(=O)c2cccc(Oc3ccc([N+](=O)[O-])cc3Cl)c2)c1 | 1.45 µM (active) | > 30 µM (not active) |  |  |  |
| CCN(CC)C(=O)Cn1c(=O)c2ccccc2n2c(=S)sc(-c3cccc(C)c3)c12 |  |  |  |  | EC50 [10]: > 53 µM (inactive) |
| COc1ccc(Cc2noc(CN3CCN(C4CCc5ccccc5C4)CC3)n2)cc1OC (stereo not given) | 1.23 µM (active) | > 60 µM (not active) |  |  |  |
| CCN(CC(=O)Nc1sc2c(c1C#N)CCCC2)Cc1nc(O)c2ccccc2n1 |  |  |  |  | EC50 [7]: 22.4 µM (active); EC50 [8]: > 120 µM (not active); EC50 [9]: > 120 µM (not active) |
| CC(C)=CCC12Oc3cc(O)ccc3C1(O)Oc1cc(O)c([C@H]3C=C(C)CC(c4ccc(O)cc4O)[C@H]3C(=O)c3ccc(O)cc3O)c(O)c1C2=O (stereo not given in full) |  |  | 1.15 µM (active) | 1.64 µM (active) |  |
| c1ccc(C(c2ccccc2)N2CCN(c3ccc4ccccc4n3)CC2)cc1 |  |  |  |  | EC50 [7]: 16.8 µM (active); EC50 [8]: > 120 µM (not active); EC50 [9]: > 120 µM (not active) |
| NS(=O)(=O)c1ccc(NC(S)=Nc2ccn(Cc3cccc4ccccc34)n2)cc1 |  |  |  |  | EC50 [7]: 15.6 µM (active); EC50 [8]: > 120 µM (not active); EC50 [9]: > 120 µM (not active) |
| O=C(Cc1coc2cc3c(cc12)CCC3)OCC(=O)N1CCCC1=O |  |  |  |  | EC50 [7]: > 60 µM (not active); EC50 [8]: > 60 µM (not active); EC50 [9]: 30.1 µM (active) |
| O=C(C[C@H]1C[C@H](C(=O)N2CCCCC2)[C@@]2(CCc3ccccc3)c3[nH]c4ccc(Cl)cc4c3CCN2C1=O)NCCN1CCOCC1 |  |  |  |  | EC50 [10]: > 53 µM (inactive) |
| O=C(Cn1nnc(-c2ccccc2)n1)N/N=C/c1cc([N+](=O)[O-])ccc1O |  |  | 0.421 µM (active) | 0.55 µM (active) |  |
| CCCN(Cc1ccco1)S(=O)(=O)c1ccc(OC)c(OC)c1 |  |  | > 150 µM (not active) | > 150 µM (not active) | EC50 [6]: > 150 µM (not active) |
| CC(/C=C/C=C/c1ccccc1)=N/NC(=O)c1ccc2c(c1)OCCO2 |  |  | > 150 µM (not active) | > 150 µM (not active) | EC50 [6]: > 150 µM (not active) |
| O=[N+]([O-])c1cccc(-c2ccc(/C=N/NC(=S)Nc3ccccc3)o2)c1 | 1.99 µM (active) |  |  |  |  |
| Oc1ccc(/C=N/Nc2ccc3ccccc3c2)c(O)c1 |  |  | 6.27 µM (active) | 31.9 µM (active) | EC50 [6]: > 150 µM (not active) |
